Experimental data reported in article PMC12362615, “Design, Synthesis, and Cellular Characterization of a New Class of IPMK Kinase Inhibitors” (Journal of Medicinal Chemistry, 2025).

How the values were obtained:
Test in all cases: Protein kinase profiling, Mobility Shift Assay (Carna Biosciences)
Format in all cases: biochemical
Settings in all cases: read-out: % Inhibition at 1.0 μM 14
IKKb = target: T1, IKKb (Homo sapiens, UniProt O14920)
T1 construct: purchased Carna Biosciences
Experimental: (§1) Protein kinase profiling of compound 14 was executed by Carna Biosciences. Briefly, compound 14 was prepared by dissolving it in dimethyl sulfoxide (DMSO) and then further diluting it in DMSO to a concentration of […]. That stock solution was further diluted 25-fold with kinase assay buffer (20 mM HEPES, 0.01% Triton X-100, 2 mM DTT, pH 7.5) to make the final 1 μM compound 14 solution. Reference compounds for the assay controls were prepared similarly. The off-chip Mobility Shift Assay (MSA) was prepared with 5 μL of 4× compound solution, 5 μL of 4× substrate/ATP/metal solution, and 10 μL of 2× kinase solution, prepared with assay buffer (20 mM HEPES, 0.01% Triton X-100, 2 mM DTT, pH 7.5). The components were mixed and incubated in a polypropylene 384-well microplate for 1 h or 5 h at room temperature, depending on the kinase being tested. 60 μL of termination buffer (QuickScout Screening Assist MSA; Carna Biosciences) was added to the well to stop the reactions, and the mixture was applied to a LabChip3000 system (Caliper Life Sciences. The product and substrate peptide peaks were separated and quantitated. The kinase reactions were evaluated by the product ratio, calculated from the peak heights of the product (P) and substrate (S) peptides (P/(P + S)). Product ratio values for the control reaction were set as 0% inhibition, and the readout value of the background (no kinase added) was set as 100% inhibition. The percent inhibition of each test solution was then calculated as reported in Figure A. The phylogenetic tree was generated using KinMap at https://bmcbioinformatics.biomedcentral.com/articles/10.1186/s12859-016-1433-7.

CDK2 = target: T2, CDK2 (Homo sapiens, UniProt P24941)
T2 construct: purchased Carna Biosciences
Experimental: as §1

TRKA = target: T3, TRKA (Homo sapiens, UniProt P04629)
T3 construct: purchased Carna Biosciences
T3 sequence (P04629 33-796): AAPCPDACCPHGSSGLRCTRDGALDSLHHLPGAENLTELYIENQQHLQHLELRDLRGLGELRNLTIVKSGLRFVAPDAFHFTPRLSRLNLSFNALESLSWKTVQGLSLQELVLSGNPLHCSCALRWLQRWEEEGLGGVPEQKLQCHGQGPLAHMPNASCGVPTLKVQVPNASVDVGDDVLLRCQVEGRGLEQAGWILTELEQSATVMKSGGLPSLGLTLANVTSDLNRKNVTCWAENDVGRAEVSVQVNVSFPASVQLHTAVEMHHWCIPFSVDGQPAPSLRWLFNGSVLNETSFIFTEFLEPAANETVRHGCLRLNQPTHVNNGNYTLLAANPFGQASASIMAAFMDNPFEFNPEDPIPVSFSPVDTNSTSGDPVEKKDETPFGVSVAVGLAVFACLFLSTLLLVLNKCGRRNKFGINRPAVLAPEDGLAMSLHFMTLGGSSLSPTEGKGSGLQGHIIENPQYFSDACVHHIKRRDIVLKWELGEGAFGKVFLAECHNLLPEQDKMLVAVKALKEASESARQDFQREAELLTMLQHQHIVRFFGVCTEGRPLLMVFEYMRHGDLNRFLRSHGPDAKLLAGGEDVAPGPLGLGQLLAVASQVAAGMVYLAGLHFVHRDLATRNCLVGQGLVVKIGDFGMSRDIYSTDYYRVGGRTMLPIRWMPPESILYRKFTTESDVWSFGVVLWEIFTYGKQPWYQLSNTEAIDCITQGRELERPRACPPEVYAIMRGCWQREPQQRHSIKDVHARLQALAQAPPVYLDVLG
Experimental: as §1

SRC = target: T4, SRC (Homo sapiens, UniProt P12931)
T4 construct: purchased Carna Biosciences
Experimental: as §1

PKCa = target: T5, PKCa (Homo sapiens, UniProt P17252)
T5 construct: purchased Carna Biosciences
Experimental: as §1

MET = target: T6, MET (Homo sapiens, UniProt P08581)
T6 construct: purchased Carna Biosciences
Experimental: as §1

EGFR = target: T7, EGFR (Homo sapiens, UniProt P00533)
T7 construct: purchased Carna Biosciences
Experimental: as §1

ABL = target: T8, ABL (Homo sapiens, UniProt P00519)
T8 construct: purchased Carna Biosciences
Experimental: as §1

ROCK1 = target: T9, ROCK1 (Homo sapiens, UniProt Q13464)
T9 construct: purchased Carna Biosciences
Experimental: as §1

MER = target: T10, MER (Homo sapiens, UniProt Q12866)
T10 construct: purchased Carna Biosciences
Experimental: as §1

JAK3 = target: T11, JAK3 (Homo sapiens, UniProt P52333)
T11 construct: purchased Carna Biosciences
T11 sequence (P52333 whole entry): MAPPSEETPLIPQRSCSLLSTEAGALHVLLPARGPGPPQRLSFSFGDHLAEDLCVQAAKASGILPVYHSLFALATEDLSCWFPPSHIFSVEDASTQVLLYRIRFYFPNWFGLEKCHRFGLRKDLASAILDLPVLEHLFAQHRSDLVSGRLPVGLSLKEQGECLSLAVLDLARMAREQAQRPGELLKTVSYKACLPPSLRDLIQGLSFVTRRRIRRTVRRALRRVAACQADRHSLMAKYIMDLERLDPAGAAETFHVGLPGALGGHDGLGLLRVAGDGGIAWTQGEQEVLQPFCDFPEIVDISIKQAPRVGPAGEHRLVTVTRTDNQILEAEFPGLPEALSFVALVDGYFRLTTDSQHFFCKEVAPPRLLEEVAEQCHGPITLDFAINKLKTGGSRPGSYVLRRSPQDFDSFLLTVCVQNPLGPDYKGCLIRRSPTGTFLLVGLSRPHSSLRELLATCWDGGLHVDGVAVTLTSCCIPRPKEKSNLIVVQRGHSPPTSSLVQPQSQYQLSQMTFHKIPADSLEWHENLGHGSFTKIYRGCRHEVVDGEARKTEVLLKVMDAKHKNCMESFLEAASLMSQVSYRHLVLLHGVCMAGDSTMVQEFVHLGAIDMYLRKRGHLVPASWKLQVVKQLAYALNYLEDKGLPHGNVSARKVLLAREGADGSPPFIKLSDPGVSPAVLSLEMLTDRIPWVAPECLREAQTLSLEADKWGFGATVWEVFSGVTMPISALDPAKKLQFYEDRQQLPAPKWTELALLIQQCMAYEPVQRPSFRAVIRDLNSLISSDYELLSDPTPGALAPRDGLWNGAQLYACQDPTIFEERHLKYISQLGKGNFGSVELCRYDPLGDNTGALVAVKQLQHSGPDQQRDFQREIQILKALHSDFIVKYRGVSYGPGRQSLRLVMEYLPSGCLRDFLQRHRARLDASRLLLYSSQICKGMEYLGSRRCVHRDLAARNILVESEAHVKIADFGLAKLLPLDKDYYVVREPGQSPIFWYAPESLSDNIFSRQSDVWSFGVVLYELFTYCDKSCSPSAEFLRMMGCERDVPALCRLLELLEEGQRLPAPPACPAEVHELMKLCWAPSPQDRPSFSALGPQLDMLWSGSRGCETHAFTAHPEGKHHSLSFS
Experimental: as §1

AurA = target: T12, AurA (Homo sapiens, UniProt O14965)
T12 construct: purchased Carna Biosciences
T12 sequence (O14965 whole entry): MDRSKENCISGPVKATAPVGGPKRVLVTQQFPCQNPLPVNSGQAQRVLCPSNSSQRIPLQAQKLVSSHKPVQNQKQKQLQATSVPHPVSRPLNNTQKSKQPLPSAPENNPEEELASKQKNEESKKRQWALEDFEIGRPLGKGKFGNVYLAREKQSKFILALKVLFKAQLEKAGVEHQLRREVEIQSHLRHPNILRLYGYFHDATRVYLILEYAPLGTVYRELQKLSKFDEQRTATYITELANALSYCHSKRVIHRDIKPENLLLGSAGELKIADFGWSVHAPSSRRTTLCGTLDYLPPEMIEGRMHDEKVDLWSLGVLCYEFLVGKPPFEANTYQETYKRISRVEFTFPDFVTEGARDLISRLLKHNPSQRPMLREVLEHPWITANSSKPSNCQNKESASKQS
Experimental: as §1

p38a = target: T13, p38a (Homo sapiens, UniProt Q16539)
T13 construct: purchased Carna Biosciences
T13 sequence (Q16539 whole entry): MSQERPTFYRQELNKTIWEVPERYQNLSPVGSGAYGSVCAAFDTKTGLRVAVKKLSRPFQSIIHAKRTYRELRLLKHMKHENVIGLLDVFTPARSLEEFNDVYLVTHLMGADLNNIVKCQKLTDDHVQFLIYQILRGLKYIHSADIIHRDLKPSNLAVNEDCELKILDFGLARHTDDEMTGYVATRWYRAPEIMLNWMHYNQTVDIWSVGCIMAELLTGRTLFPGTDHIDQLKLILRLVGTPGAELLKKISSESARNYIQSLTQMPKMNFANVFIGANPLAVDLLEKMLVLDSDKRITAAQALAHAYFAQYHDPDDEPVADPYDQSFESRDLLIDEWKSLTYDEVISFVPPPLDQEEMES
Experimental: as §1

CaMK4 = target: T14, CaMK4 (Homo sapiens, UniProt Q16566)
T14 construct: purchased Carna Biosciences
Experimental: as §1

IRAK4 = target: T15, IRAK4 (Homo sapiens, UniProt Q9NWZ3)
T15 construct: purchased Carna Biosciences
Experimental: as §1

MST1 = target: T16, MST1 (Homo sapiens, UniProt Q13043)
T16 construct: purchased Carna Biosciences
T16 sequence (Q13043 whole entry): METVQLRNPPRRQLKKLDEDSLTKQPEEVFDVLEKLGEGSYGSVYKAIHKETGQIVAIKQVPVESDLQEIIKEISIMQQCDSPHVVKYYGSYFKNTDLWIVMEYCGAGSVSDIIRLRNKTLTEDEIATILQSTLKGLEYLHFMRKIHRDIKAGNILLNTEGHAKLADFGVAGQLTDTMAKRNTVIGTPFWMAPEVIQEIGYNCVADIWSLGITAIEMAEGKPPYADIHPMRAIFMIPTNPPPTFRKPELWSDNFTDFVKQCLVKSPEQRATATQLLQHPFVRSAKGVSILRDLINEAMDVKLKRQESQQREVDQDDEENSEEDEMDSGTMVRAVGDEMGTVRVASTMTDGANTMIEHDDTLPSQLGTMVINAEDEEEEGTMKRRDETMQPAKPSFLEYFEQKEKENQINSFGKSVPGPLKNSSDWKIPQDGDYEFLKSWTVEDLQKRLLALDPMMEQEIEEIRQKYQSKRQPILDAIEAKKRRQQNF
Experimental: as §1

SYK = target: T17, SYK (Homo sapiens, UniProt P43405)
T17 construct: purchased Carna Biosciences
Experimental: as §1

ITK = target: T18, ITK (Homo sapiens, UniProt Q08881)
T18 construct: purchased Carna Biosciences
T18 sequence (Q08881 whole entry): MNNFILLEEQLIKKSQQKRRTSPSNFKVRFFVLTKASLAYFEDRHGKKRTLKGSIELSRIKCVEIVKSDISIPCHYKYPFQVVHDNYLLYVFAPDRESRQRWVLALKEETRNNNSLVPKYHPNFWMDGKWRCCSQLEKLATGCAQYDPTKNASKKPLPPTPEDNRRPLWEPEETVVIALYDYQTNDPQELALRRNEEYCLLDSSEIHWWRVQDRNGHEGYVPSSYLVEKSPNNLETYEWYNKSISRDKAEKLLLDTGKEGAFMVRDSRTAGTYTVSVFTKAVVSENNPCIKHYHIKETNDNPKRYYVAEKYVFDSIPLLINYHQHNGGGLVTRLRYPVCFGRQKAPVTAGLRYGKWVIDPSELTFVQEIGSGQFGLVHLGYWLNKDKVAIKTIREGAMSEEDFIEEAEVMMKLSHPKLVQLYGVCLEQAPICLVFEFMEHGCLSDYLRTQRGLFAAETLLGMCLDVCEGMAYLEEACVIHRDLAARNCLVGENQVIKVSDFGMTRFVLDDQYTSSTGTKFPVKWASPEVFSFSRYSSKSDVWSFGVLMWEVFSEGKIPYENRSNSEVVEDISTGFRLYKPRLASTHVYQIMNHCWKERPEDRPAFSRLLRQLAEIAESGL
Experimental: as §1

AKT1 = target: T19, AKT1 (Homo sapiens, UniProt P31749)
T19 construct: purchased Carna Biosciences
T19 sequence (P31749 whole entry): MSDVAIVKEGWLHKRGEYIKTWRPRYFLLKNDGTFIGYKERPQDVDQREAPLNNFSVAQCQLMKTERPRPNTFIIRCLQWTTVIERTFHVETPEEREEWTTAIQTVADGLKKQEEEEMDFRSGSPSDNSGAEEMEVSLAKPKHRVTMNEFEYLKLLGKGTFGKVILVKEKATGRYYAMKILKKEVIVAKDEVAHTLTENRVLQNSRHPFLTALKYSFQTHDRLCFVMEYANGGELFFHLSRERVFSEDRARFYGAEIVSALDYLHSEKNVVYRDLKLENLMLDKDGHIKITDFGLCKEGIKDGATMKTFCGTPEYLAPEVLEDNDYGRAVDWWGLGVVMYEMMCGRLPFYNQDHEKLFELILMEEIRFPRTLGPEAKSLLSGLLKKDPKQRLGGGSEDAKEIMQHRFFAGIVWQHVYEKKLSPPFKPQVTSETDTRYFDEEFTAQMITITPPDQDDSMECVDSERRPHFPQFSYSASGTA
Experimental: as §1

inhibition at 1 µM (IKKb): 0.4%
inhibition at 1 µM (CDK2): 1.6%
inhibition at 1 µM (TRKA): 35.9%
inhibition at 1 µM (SRC): 18.4%
inhibition at 1 µM (PKCa): 59.6%
inhibition at 1 µM (MET): 34.7%
inhibition at 1 µM (EGFR): 3.4%
inhibition at 1 µM (ABL): 27.5%
inhibition at 1 µM (ROCK1): 6.1%
inhibition at 1 µM (MER): 72%
inhibition at 1 µM (JAK3): 72.8%
inhibition at 1 µM (AurA): 24.7%
inhibition at 1 µM (p38a): 2.6%
inhibition at 1 µM (CaMK4): -4%
inhibition at 1 µM (IRAK4): 1.3%
inhibition at 1 µM (MST1): 51%
inhibition at 1 µM (SYK): -13%
inhibition at 1 µM (ITK): 5.7%
inhibition at 1 µM (AKT1): 7.4%
Compound: c1cc(-c2onc3ccc(-c4nnn[nH]4)cc23)cc(C2CCN(C3CCC3)CC2)c1 [Compound 14, 3-(3-(1-Cyclobutylpiperidin-4-yl)phenyl)-5-(1H-tetrazol-5-yl)benzo[c]isoxazole]
